The results in this text go back to the NIST ThermoML archive (doi:10.1021/je049605r).

Molecules are shown by their SMILES. ± gives the expanded uncertainty stated by the source.

The conditions of data set [1]: 293.2 K; 101.33 kPa; Liquid.
Data set [2] is described as follows: refractive index (Na D-line) (dimensionless). The conditions noted are these: 293.2 K; 101.33 kPa; Liquid; Standard Abbe refractometry.

For `OCC1CCCO1` (stereo unspecified) [2-tetrahydrofurylmethanol], in data set [1], the mass density worked out at 1055.1 ± 0.6 kg/m3. Besides, in data set [2], the refractive index is 1.4525 ± 0.0007.

Regarding `Clc1ccccc1` [chlorobenzene], in data set [1], the mass density stood at 1106.2 ± 0.4 kg/m3. Moreover, the refractive index in data set [2] is 1.5244 ± 0.0007.

Turning to `C1CCCCC1` [cyclohexane], the mass density in data set [1] is listed as 779.3 ± 0.6 kg/m3. Also, in data set [2], the refractive index worked out at 1.4269 ± 0.0007.

As to `OC1CCCCC1` [cyclohexanol], the mass density in data set [1] was 963.5 ± 9.6 kg/m3. The refractive index in data set [2] amounted to 1.4648 ± 0.0007.

`CC(=O)OC1CCCCC1` [cyclohexyl ethanoate]: the mass density in data set [1] is on record as 970.3 ± 0.3 kg/m3. Moreover, the refractive index in data set [2] was 1.441 ± 0.0007.

For `O` [water], in data set [2], the refractive index came out at 1.3326 ± 0.0007.

What is called mass density is the mass of a sample divided by its volume. By refractive index is commonly meant the speed of light in vacuum divided by its phase velocity in the sample.
